Source: publication PMC8915600, “Optimization of experimental conditions for skin-PAMPA measurements” (ADMET & DMPK, 2020)
Read-outs that look alike come from different tables or passages of the source. Marks after values point to notes of the source that are not given here.

Key:
[1] = cited from earlier work
[2] = in vitro; settings: PAMPA, pH 7.4, log Pe
[3] = skin-PAMPA permeability assay (gradient-pH, UPLC-DAD); settings: for Papp at 4 h, 50 μM / Papp at 24 h, 50 μM: PAMPA; for RM (membrane retention): mole fraction, neutral form
[4] = skin-PAMPA membrane stability after pre-treatment at basic pH; settings: membrane soaked at pH 7, 8, 9, 10 for 30 min or 4 h; then assay 4 h with stirring, donor pH 5, acceptor pH 7.4; versus untreated membrane
Description: Then, a standard permeation assay was carried out with an incubation time of 4 h and stirring at pH 5 in the donor compartment and pH 7.4 in the acceptor compartment. Simultaneously, permeation assays were also performed without the previous soaking treatment at basic pH.

[5] = set-up: method as in earlier work; settings: octanol-water partition coefficient; cited from earlier work
[6] = cited from earlier work; remark: listed apart in the source
[7] = logarithm of human skin permeation coefficient, neutral form, corrected for ionization in water and for temperature at 37 °C
[8] = pH 7.4, log Pe, optimized assay conditions (4 h incubation, stirring), measured at the pH corresponding to the neutral form, acceptor pH 7.4
[9] = optimized assay conditions (4 h incubation, stirring), measured at the pH corresponding to the neutral form, acceptor pH 7.4

Structure (SMILES): Oc1ccc(Cl)cc1Cl [2,4-Dichlorophenol]
- log Kp [1, 7]: -4.30 cm/s
- Papp at 4 h, 50 μM [2]: 120 ×10⁻⁶ cm/s

Structure (SMILES): Cc1ccc(C(C)C)c(O)c1 [2-Isopropyl-5-Methylphenol (Thymol), 2-Isopropyl-5-Methylphenol]
- Papp at 4 h, 50 μM [3, 8]: 97.7 ×10⁻⁶ cm/s
- log Kp [1, 7]: -4.35 cm/s

Structure (SMILES): Cc1ccccc1N [2-toluidine]
- change of skin-PAMPA log Pe after membrane treatment at basic pH [4]: remain constant

Structure (SMILES): Cc1cccc(O)c1 [3-Methylphenol (m-Cresol), 3-Methylphenol]
- log Kp [1, 7]: -4.89 cm/s
- Papp [2, 9]: 46.8 ×10⁻⁶ cm/s

Structure (SMILES): Nc1ccc(O)c([N+](=O)[O-])c1 [4-Amino-2-nitrophenol]
- Papp at 4 h, 50 μM [3, 8]: 25.7 ×10⁻⁶ cm/s
- log Kp [1, 7]: -5.91 cm/s

Structure (SMILES): Oc1ccc(Cl)cc1 [4-Chlorophenol]
- log Kp [1, 7]: -4.52 cm/s

Structure (SMILES): CCc1ccc(O)cc1 [4-Ethylphenol]
- Papp at 4 h, 50 μM [3, 8]: 64.6 ×10⁻⁶ cm/s
- log Kp [1, 7]: -4.53 cm/s

Structure (SMILES): COC(=O)Cc1ccc(O)cc1 [4-Hydroxy-methylphenylacetate]
- log Pe [3, 9]: -5.07±0.09 cm/s
- log Kp [1, 7]: -5.26 cm/s

Structure (SMILES): OCc1ccc(O)cc1 [4-Hydroxybenzyl alcohol]
- Papp at 4 h, 50 μM [3, 8]: 1.41 ×10⁻⁶ cm/s
- log Kp [1, 7]: -6.26 cm/s

Structure (SMILES): NC(=O)Cc1ccc(O)cc1 [4-Hydroxyphenylacetamide]
- Papp at 4 h, 50 μM [3, 8]: 0.851 ×10⁻⁶ cm/s
- log Kp [1, 7]: -6.89 cm/s

Structure (SMILES): O=[N+]([O-])c1ccc(O)cc1 [4-Nitrophenol]
- log Kp [1, 7]: -5.33 cm/s
- Papp [2, 9]: 12.3 ×10⁻⁶ cm/s

Structure (SMILES): CCC1(CC)C(=O)NC(=O)NC1=O [5,5-Diethylbarbituric acid (Barbital), 5,5-Diethylbarbituric acid]
- log Kp ([1]; human): -7.29 cm/s
- Papp [2]: 1.78 ×10⁻⁶ cm/s

Structure (SMILES): CCC1(c2ccccc2)C(=O)NC(=O)NC1=O [5-Ethyl-5-phenylbarbituric acid]
- log Kp ([1]; human): -6.68 cm/s
- Papp [2]: 0.891 ×10⁻⁶ cm/s

Structure (SMILES): O=c1[nH]cc(F)c(=O)[nH]1 [5-Fluorouracil]
- log Po/w [5]: -0.89
- Papp at 4 h, 50 μM ([3]; log Pe, with stirring, 4 h incubation, neutral form (donor pH 3.0, aminopyrine pH 7.0), acceptor pH 7.4, 32 °C): 1.7 ×10⁻⁶ cm/s
- Papp at 24 h, 50 μM ([3]; log Pe, with stirring, 24 h incubation, neutral form (donor pH 3.0, aminopyrine pH 7.0), acceptor pH 7.4, 32 °C): 0.692 ×10⁻⁶ cm/s
- Papp at 4 h, 50 μM ([3]; log Pe, without stirring, 4 h incubation, neutral form (donor pH 3.0, aminopyrine pH 7.0), acceptor pH 7.4, 32 °C): 0.339 ×10⁻⁶ cm/s
- Papp at 24 h, 50 μM ([3]; log Pe, without stirring, 24 h incubation, neutral form (donor pH 3.0, aminopyrine pH 7.0), acceptor pH 7.4, 32 °C): 0.851 ×10⁻⁶ cm/s
- RM (membrane retention) ([3]; with stirring, 30 min incubation): 0.00
- RM (membrane retention) ([3]; with stirring, 4 h incubation): 0.04(±0.04)
- RM (membrane retention) ([3]; with stirring, 24 h incubation): 0.08(±0.03)
- RM (membrane retention) ([3]; without stirring, 30 min incubation): 0.00
- RM (membrane retention) ([3]; without stirring, 4 h incubation): 0.01(±0.03)
- RM (membrane retention) ([3]; without stirring, 24 h incubation): 0.05(±0.02)
- log Pe [3, 9]: -5.77±0.02 cm/s
- log Pe ([3]; without stirring, 4 h incubation, neutral form (donor pH 3.0, aminopyrine pH 7.0), acceptor pH 7.4, 32 °C): -6.47 cm/s
- log Kp [1, 7]: -6.82 cm/s
- pKa [6]: 7.86 ^a

Structure (SMILES): COc1c2occc2cc2ccc(=O)oc12 [8-Methoxypsoralen]
- Papp at 4 h, 50 μM [3, 8]: 50.1 ×10⁻⁶ cm/s

Structure (SMILES): Cc1c(N(C)C)c(=O)n(-c2ccccc2)n1C [Aminopyrine]
- log Kp [1, 7]: -6.55 cm/s
- pKa ([6]; aqueous): 5.00 ^b

Structure (SMILES): Nc1ccccc1 [Aniline]
- log Kp ([1]; human): -4.94 cm/s
- Papp [2]: 28.2 ×10⁻⁶ cm/s

Structure (SMILES): O=C(OCc1ccccc1)c1cccnc1 [Benzyl nicotinate]
- Papp at 4 h, 50 μM [3, 8]: 69.2 ×10⁻⁶ cm/s
- log Kp [1, 7]: -4.87 cm/s

Structure (SMILES): Cn1c(=O)c2c(ncn2C)n(C)c1=O [Caffeine]
- log Kp [1, 7]: -6.85 cm/s
